Structures are written as SMILES. “And” between values parts separate entries of the source, which are not always exact repeats. Equal entries are not always repeated. “Also recorded” adds a separate entry of the source. Where two headings read alike, the source gives them in different places.

From article PMC9266353, “Development of Novel Ecto-Nucleotide Pyrophosphatase/Phosphodiesterase 1 (ENPP1) Inhibitors for Tumor Immunotherapy” (International Journal of Molecular Sciences, 2022) come the findings set out here.

One series deals with T1, human soluble ENPP1 (Homo sapiens, UniProt P22413).
T1 construct: addition of 20 ng of human soluble ENPP1; His; made in house; host or cells: 293-F cells (protein harvested from the medium)
T1 sequence (P22413 103-925 limits assumed): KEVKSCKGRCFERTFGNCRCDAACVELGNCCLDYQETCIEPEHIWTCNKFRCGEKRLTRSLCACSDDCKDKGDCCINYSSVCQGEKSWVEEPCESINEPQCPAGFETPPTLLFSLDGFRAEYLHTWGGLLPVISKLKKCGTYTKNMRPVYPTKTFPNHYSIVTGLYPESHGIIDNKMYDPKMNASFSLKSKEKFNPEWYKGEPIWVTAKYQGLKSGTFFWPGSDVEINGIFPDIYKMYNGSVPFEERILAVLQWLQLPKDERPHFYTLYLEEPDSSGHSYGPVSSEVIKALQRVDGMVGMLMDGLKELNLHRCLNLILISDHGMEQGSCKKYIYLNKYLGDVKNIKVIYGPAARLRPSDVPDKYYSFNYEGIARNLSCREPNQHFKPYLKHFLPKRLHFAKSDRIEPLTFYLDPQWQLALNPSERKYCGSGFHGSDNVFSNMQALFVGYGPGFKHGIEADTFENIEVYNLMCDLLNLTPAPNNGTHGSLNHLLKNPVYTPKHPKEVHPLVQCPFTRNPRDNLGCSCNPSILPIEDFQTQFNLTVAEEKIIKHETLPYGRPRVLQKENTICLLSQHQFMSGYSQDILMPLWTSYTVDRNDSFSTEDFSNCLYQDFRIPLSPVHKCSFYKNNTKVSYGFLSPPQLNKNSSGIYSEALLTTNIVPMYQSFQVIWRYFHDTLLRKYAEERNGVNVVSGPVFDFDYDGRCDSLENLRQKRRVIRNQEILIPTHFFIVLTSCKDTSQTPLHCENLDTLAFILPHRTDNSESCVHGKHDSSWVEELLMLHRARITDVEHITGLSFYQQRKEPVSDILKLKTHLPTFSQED
Description: Enzyme-based ENPP1 inhibitory assay (pNP-TMP substrate, 405 nm). It counts as biochemical. Conditions: for inhibition at 10 µM: pH 9, 10 μM compound, 200 μM pNP-TMP, pH 9.0, 37 °C; for IC50: three independent enzymatic assays, read-out: IC50 against ENPP1 (enzymatic assay). As to the method: In total, 1 mg hENPP1-HIS DNA using polyethylenimine at a DNA:PEI ratio of 1:3 was transfected into 1 L of 293-F cells in 293 freestyle medium. The medium was harvested after five days and filter-sterilized. […] Approximately 1 mg of purified protein was obtained from the 1-liter culture. The quality of the protein purification was validated by SDS-PAGE analysis (see Figure S1).
The initial screenings were carried out at 37 °C in a total volume of 0.1 mL of the following incubation mixture: 1 mM CaCl2, 200 μM ZnCl2, 50 mM Tris, pH 9.0, and 10 μM of each test compound. The enzyme reactions began with the addition of 20 ng of human soluble ENPP1, then incubated at 37 °C for 10 min and initiated by the addition of 200 μM pNP-TMP. The production of p-nitrophenol was measured after 30 min reaction at 405 nm. […] For the blank samples, the enzyme was added at the end of the reaction and read immediately. The IC50 values of test compounds were calculated by plotting three independent experiments using the program Prism 5.0. Incubation and operation conditions remained the same as those described above.

Series [1] concerns the target T2, ENPP1 in the MDA-MB-231 cell line (Homo sapiens, UniProt P22413).
T2 construct: MDA-MB-231 cells highly expressed ENPP1; endogenous in cells; host or cells: MDA-MB-231
T2 sequence (P22413 1-925): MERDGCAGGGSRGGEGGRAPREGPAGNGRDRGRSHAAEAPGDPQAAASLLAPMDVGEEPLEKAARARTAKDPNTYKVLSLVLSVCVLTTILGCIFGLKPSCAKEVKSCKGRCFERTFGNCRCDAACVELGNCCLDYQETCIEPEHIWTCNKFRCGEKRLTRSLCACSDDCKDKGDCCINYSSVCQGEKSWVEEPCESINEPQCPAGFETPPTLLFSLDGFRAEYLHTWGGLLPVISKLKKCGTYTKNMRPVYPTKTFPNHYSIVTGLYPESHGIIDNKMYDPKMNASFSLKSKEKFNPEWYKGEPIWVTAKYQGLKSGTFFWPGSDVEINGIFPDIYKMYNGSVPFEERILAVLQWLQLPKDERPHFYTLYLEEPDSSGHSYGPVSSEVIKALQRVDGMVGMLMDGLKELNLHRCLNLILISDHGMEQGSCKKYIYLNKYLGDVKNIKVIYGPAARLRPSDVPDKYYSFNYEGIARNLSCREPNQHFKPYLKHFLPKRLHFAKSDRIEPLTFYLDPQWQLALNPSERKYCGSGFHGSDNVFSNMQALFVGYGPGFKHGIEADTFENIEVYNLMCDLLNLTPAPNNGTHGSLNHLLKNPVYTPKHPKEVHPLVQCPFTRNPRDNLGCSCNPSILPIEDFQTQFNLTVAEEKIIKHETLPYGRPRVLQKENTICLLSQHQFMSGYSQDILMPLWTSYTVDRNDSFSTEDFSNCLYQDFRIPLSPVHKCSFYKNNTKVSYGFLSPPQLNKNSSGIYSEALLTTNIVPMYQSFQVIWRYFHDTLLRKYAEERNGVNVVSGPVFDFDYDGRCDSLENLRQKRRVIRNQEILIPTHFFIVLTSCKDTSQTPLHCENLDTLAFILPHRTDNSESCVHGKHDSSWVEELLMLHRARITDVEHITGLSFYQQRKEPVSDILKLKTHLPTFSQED
Description: Cellular ENPP1 enzymatic inhibition assay in MDA-MB-231 cells (pNP-TMP). To be noted: 4 h incubation, 200 μM pNP-TMP; three independent cell assays; read-out: IC50 against ENPP1 in MDA-MB-231 cell line. It counts as cell-based. As to the method:
MDA-MB-231 (1.0 × 10^4 cells/well) were grown on 96-well microplates (IWAKI) overnight in the culture medium (100 μL/well) in a humidified incubator containing 5% CO2 in air at 37 °C for 24 h. The plates were washed with D-Hanks (100 μL) twice, and fresh D-Hanks (80 μL) was added. 5% DMSO or test compound (10 μL) was added to each well, and eventually pNP-TMP (2 mM, 10 μL, final 200 μM) was added. After 4 h incubation at 37 °C, the amounts of released p-nitrophenolate were measured at 405 nm. The IC50 values of test compounds were calculated by plotting three independent experiments using the program Prism 5.0 [38].

In another series the test system is 4T1 cell line. Description: Cell proliferation assay (CCK8), 4T1. It counts as cell-based. To be noted: CCK8, 48 h, read-out: IC50 against 4T1 cell line. As to the method: In total, 1 × 10^4 cells (4T1, LO2 and 293T) were plated in 96-well flat-bottom plates in a final volume of 200 μL DMEM supplemented with 10% FBS and cultured for 24 h. Next, the culture was replaced by fresh DMEM medium (200 μL) and the compound (10 μL) was added. After forty-eight hours, the medium was replaced by PBS (180 μL) mixture with CCK8 solution (20 μL) in each well. Cell viability was evaluated by testing the OD450 nm. The data were processed by GraphPad Prism 7.0 [45, 46].

For the next series, the system named is 293T cell line. Description: Cell viability assay (CCK8), 293T. It counts as cell-based. The method, then: (§1) Next, the culture was replaced by fresh DMEM medium (200 μL) and the compound (10 μL) was added. After forty-eight hours, the medium was replaced by PBS (180 μL) mixture with CCK8 solution (20 μL) in each well. Cell viability was evaluated by testing the OD450 nm. The data were processed by GraphPad Prism 7.0 [45, 46].

The next series deals with LO2 cell line. Description: Cell viability assay (CCK8), LO2. In kind it is cell-based. The method, then: as §1
A further series deals with IFN-β in serum. Description: IFN-β in mouse serum by ELISA after i.v. administration. It counts as in vivo, BALB/c nude mice. To be noted: blood after 0.5 h. As to the method:
The animal studies were conducted with the approval of the Animal Care and Use Committee at Fudan University. BALB/c nude mice (6−8 weeks) were randomized into three groups (n = 3, with a total tumor number of 9). Free cGAMP (at dose of 5 mg/kg) and cGAMP-compound 4e (at doses of 5 mg/kg cGAMP and 0.5 mg/kg compound 4e), respectively, were injected intravenously (i.v.) into mice via tail vein. After i.v. administration, mouse blood samples were collected from ophthalmic vein after 0.5 h and centrifuged at 500× g for 20 min. The concentration of IFN-β in the serum was determined by mouse ELISA kits, according to the instruction manual.

Usually inhibition stands for the share of the control response that was lost under treatment. A low value points to little suppression. In turn, `COc1ccc2[nH]c(SCc3nc4cc(Cl)ccc4c(=O)[nH]3)nc2n1` [Compound 4f, 7-Chloro-2-(((5-methoxy-1H-imidazo[4,5-b]pyridin-2-yl)thio)methyl)quinazolin-4(3H)-one] yielded an inhibition at 10 µM against human soluble ENPP1 of 52.9%.
What is called IC50 is the concentration that gives 50% inhibition. Turning to `COC(=O)c1ccc2c(=O)[nH]c(CSc3nc4nc(OC)ccc4[nH]3)nc2c1` [Compound 4d, Methyl 2-(((5-methoxy-1H-imidazo[4,5-b]pyridin-2-yl)thio)methyl)-4-oxo-3,4-dihydroquina-zoline-7-carboxylate], in series [1], the IC50 was found to be 3340 nM. Besides, on human soluble ENPP1, the inhibition at 10 µM was > 90% and the IC50 was determined as 694 nM.
For the molecule `N.N.[Cl][Pt][Cl]` [Cisplatin, cisplatin, reference compound], the IC50 in the series with 4T1 cell line came out at 3.2 µM.
The molecule `COc1ccc2[nH]c(SCc3nc4cccc(F)c4c(=O)[nH]3)nc2n1` [Compound 4a, 5-Fluoro-2-(((5-methoxy-1H-imidazo[4,5-b]pyridin-2-yl)thio)methyl)quinazol-in-4(3H)-one] showed an inhibition at 10 µM against human soluble ENPP1 of 72.2%.
Still for that read-out and setting: for `COc1ccc2nc(CSc3nc4nc(OC)ccc4[nH]3)[nH]c(=O)c2c1` [Compound 4b, 6-Methoxy-2-(((5-methoxy-1H-imidazo[4,5-b]pyridin-2-yl)thio)methyl)quinaz-olin-4(3H)-one] the value was 76.5%.
For `COc1ccc2[nH]c(SCc3nc4cc(F)ccc4c(=O)[nH]3)nc2n1` [Compound 4e, 7-Fluoro-2-(((5-methoxy-1H-imidazo[4,5-b]pyridin-2-yl)thio)methyl)quinazolin-4(3H)-one], the IC50 in series [1] is < 1000 nM and 732 nM; with 4T1 cell line (Mus musculus, 4T1) it was 2.99 µM; on human soluble ENPP1 it was 188 nM and < 1000 nM. Moreover, the “cytotoxic effect (% inhibition) against 293T” value with 293T cell line (50 μM, CCK8, 48 h) came to 9.35%. Moreover, in the series with 293T cell line (highest concentration 50 μM), the “cytotoxic effect on 293T (in words)” value is on record as “nonsignificant cytotoxic effect; also recorded: negligible cytotoxic effects”. Moreover, at human soluble ENPP1, the inhibition at 10 µM is > 90%. Also, in the series with LO2 cell line (50 μM, CCK8, 48 h), the “cytotoxic effect (% inhibition) against LO2” value was determined as 15.33%. For the same molecule, the “cytotoxic effect on LO2 (in words)” value in the series with LO2 cell line (highest concentration 50 μM) is recorded as “nonsignificant cytotoxic effect; also recorded: negligible cytotoxic effects”. Also, the “IFN-β expression level in serum, cGAMP-compound 4e group compared with free-cGAMP group” value in the series with IFN-β in serum (5 mg/kg cGAMP and 0.5 mg/kg compound 4e i.v.) is reported as “higher”.
As for `Nc1nc2c(ncn2[C@@H]2O[C@@H]3COP(=O)(O)O[C@H]4[C@@H](O)[C@H](n5cnc6c(N)ncnc65)O[C@@H]4COP(=O)(O)O[C@@H]2[C@@H]3O)c(=O)[nH]1` [cGAMP, 2′,3′-cyclic GMP-AMP, reference compound], the “IFN-β in serum, free cGAMP compared with model mice” value in the series on IFN-β in serum (5 mg/kg cGAMP i.v.) is on record as “upregulation”.
Consider `COc1ccc2[nH]c(SCc3nc4c(C)cccc4c(=O)[nH]3)nc2n1` [Compound 4g, 2-(((5-Methoxy-1H-imidazo[4,5-b]pyridin-2-yl)thio)methyl)-8-methylquinazoli-n-4(3H)-one], for which the inhibition at 10 µM against human soluble ENPP1 amounted to 72.7%.
Same read-out and setting: as for `COc1ccc2[nH]c(SCc3nc4c(Br)cccc4c(=O)[nH]3)nc2n1` [Compound 4h, 8-Bromo-2-(((5-methoxy-1H-imidazo[4,5-b]pyridin-2-yl)thio)methyl)quinazoli-n-4(3H)-one], the figure is 55.5%.
On the same count and under the same terms, as for `COc1ccc2[nH]c(SCc3nc4cc(C)ccc4c(=O)[nH]3)nc2n1` [Compound 4c, 2-(((5-Methoxy-1H-imidazo[4,5-b]pyridin-2-yl)thio)methyl)-7-methylquinazoli-n-4(3H)-one], the figure is 75.4%.
